Assay results reported in the supplement of paper PMC8671470.

Key:
Conditions in all cases: 72 h
[1] = system: myeloid leukemia patient primary cells Pat.9; assay: cell viability (% survival relative to DMSO control); higher = less cytotoxic
Outline: (§1)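 Thawed mononuclear cells from AML or CML patients were purified on Ficoll and cultured for 72 h in RPMI 1640 with 10% FBS, at 10,000 cells/well, on 384-well plates carrying 70 pre-printed compounds at 1–10,000 nM in five tenfold steps, in duplicate. Viability came from CellTiter-Glo, normalised against DMSO and against 10 μM proteasome inhibitor. Any area under the curve given was derived from log-logistic curve fits in the drc and PharmacoGx R packages, and these fits had four parameters.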

[2] = system: myeloid leukemia patient primary cells Pat.12; assay: as above
Outline: as §1

[3] = system: myeloid leukemia patient primary cells Pat.4; assay: area under dose-response curve (viability, 1 nM-10 uM) (fraction (0-1)); higher = more sensitive
Protocol: (§2)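 AUC (0–1, higher = more sensitive) of the 5-point dose–response (1 nM–10 µM, 72 h, CellTiter-Glo) in primary AML/CML patient mononuclear cells. 0.030103 is the floor for inactive compounds.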

[4] = system: myeloid leukemia patient primary cells Pat.1; assay: as above
Protocol: as §2

[5] = system: myeloid leukemia patient primary cells Pat.14; assay: as above
Protocol: as §2

[6] = system: myeloid leukemia patient primary cells Pat.11; assay: as above
Protocol: as §2

[7] = system: myeloid leukemia patient primary cells Pat.8; assay: as above
Protocol: as §2

[8] = system: myeloid leukemia patient primary cells Pat.3; assay: as above
Protocol: as §2

[9] = system: myeloid leukemia patient primary cells Pat.15; assay: as above
Protocol: as §2

[10] = system: myeloid leukemia patient primary cells Pat.6; assay: as above
Protocol: as §2

[11] = system: myeloid leukemia patient primary cells Pat.13; assay: as above
Protocol: as §2

[12] = system: myeloid leukemia patient primary cells Pat.10; assay: as above
Protocol: as §2

SMILES	cell viability ([1]; 1 nM) [%]	cell viability ([1]; 10 nM) [%]	cell viability ([1]; 100 nM) [%]	cell viability ([1]; 1000 nM) [%]	cell viability ([1]; 10000 nM) [%]	cell viability ([2]; 1 nM) [%]	cell viability ([2]; 10 nM) [%]	cell viability ([2]; 100 nM) [%]	cell viability ([2]; 1000 nM) [%]	cell viability ([2]; 10000 nM) [%]	area under dose-response curve [3]	area under dose-response curve [4]	area under dose-response curve [5]	area under dose-response curve [6]	area under dose-response curve [7]	area under dose-response curve [8]	area under dose-response curve [9]	area under dose-response curve [10]	area under dose-response curve [11]	area under dose-response curve [12]
Sc1ncnc2nc[nH]c12 [6-mercaptopurine]	62.5	68.1	48.8	79.9	30.1	> 100	95.9	93.6	97.3	> 100	< 0.0301	< 0.0301	< 0.0301	< 0.0301	< 0.0301	0.44	< 0.0301	< 0.0301	< 0.0301	–
Cc1noc2c1-c1ccccc1C(c1ccc(Cl)cc1)=N[C@H]2CC(N)=O [CPI-0610]	83	24.2	88.3	6.03	11.5	96.7	90.2	98.4	82.8	80.9	0.423	0.264	–	0.18	–	0.378	0.423	–	0.191	0.458
Nc1ccn([C@@H]2O[C@H](CO)[C@@H](O)[C@@H]2O)c(=O)n1 [Cytarabine]	89.7	18.1	51.2	15.5	2.09	96.3	94.1	> 100	97.1	67.7	0.142	–	0.152	0.0784	0.0847	0.647	0.109	0.0602	0.188	0.205
CCN(CC)CCN(Cc1ccc(-c2ccc(C(F)(F)F)cc2)cc1)C(=O)Cn1c(SCc2ccc(F)cc2)nc(=O)c2c1CCC2 [Darapladib]	37.7	60.6	25.1	2.92	< 0	94.6	97.5	85.3	92.2	< 0	0.123	0.111	0.241	0.137	0.117	0.211	0.124	0.137	0.154	0.104
CC12CCC(O)CC1CCC1C2CCC2(C)C(C3=CC(=O)OC3)CCC12O (stereo unspecified) [Digitoxigenin]	79	54.7	13	5.35	4.43	97.4	96	94.2	58.7	16.8	0.373	0.388	0.305	0.279	0.391	0.601	0.357	0.26	0.324	< 0.0301
C[C@H]1O[C@@H](O[C@H]2[C@@H](O)C[C@H](O[C@H]3[C@@H](O)C[C@H](O[C@H]4CC[C@@]5(C)[C@H](CC[C@@H]6[C@@H]5C[C@@H](O)[C@]5(C)[C@@H](C7=CC(=O)OC7)CC[C@]65O)C4)O[C@@H]3C)O[C@@H]2C)C[C@H](O)[C@@H]1O [Digoxin]	76	65.2	17.7	2.92	2.42	94.2	95	85.5	41.7	12.6	0.42	0.348	0.363	0.471	0.425	0.624	0.493	0.328	0.384	< 0.0301
Clc1ccc(COC(Cn2ccnc2)c2ccc(Cl)cc2Cl)cc1 (stereo unspecified) [Econazole]	55.9	80.5	43.2	25.8	3.7	89.2	94.9	95.7	96.5	90.3	< 0.0301	0.0311	0.138	< 0.0301	< 0.0301	0.173	< 0.0301	0.0776	–	0.277
C[C@]12O[C@H](C[C@]1(O)CO)n1c3ccccc3c3c4c(c5c6ccccc6n2c5c31)CNC4=O [Lestaurtinib]	56.2	18.6	19.5	5.6	< 0	> 100	> 100	87	> 100	1.77	0.622	0.654	0.261	0.235	0.211	0.363	0.533	0.096	0.23	0.124
CC(Cc1ccc(O)c(O)c1)C(C)Cc1ccc(O)c(O)c1 (stereo unspecified) [Masoprocol]	75.1	87.1	97.4	9.61	83.4	91.2	96.6	98.3	89	35.1	0.119	0.075	–	< 0.0301	0.186	0.299	0.111	0.15	0.0768	< 0.0301
COc1c(C)c2c(c(O)c1C/C=C(\C)CCC(=O)O)C(=O)OC2 [Mycophenolic acid]	28	63.2	52	50.4	75	> 100	> 100	85.9	> 100	80.5	0.0528	< 0.0301	< 0.0301	< 0.0301	0.0355	0.0922	< 0.0301	< 0.0301	–	–
CCOC(=O)N1c2ccc(C(F)(F)F)cc2[C@@H](N(Cc2cc(C(F)(F)F)cc(C(F)(F)F)c2)C(=O)OC)C[C@H]1CC [Torcetrapib]	45.1	28.6	68.9	48.8	5.45	93.2	82.7	94.3	89.7	79	< 0.0301	< 0.0301	0.0394	< 0.0301	< 0.0301	0.0719	< 0.0301	0.0345	0.0668	0.212
